Data published in paper PMC3401313 (Bioorganic & medicinal chemistry letters, 2012).

Assays:
[1] = molecular target: recombinant human HDAC3 (Homo sapiens, UniProt O15379); assay: HDAC3 fluorogenic inhibition assay; conditions: read-out: HDAC3 %Inhibition(10µM)
[2] = molecular target: recombinant His-tagged HDAC2 (Homo sapiens, UniProt Q92769); assay type: binding; conditions: probe 25 µM, HDAC2 1.25 µM, Trichostatin A 125 µM (5-fold molar excess), 24 h preincubation, 254 nm UV
recombinant His-tagged HDAC2, sequence (Q92769 whole entry): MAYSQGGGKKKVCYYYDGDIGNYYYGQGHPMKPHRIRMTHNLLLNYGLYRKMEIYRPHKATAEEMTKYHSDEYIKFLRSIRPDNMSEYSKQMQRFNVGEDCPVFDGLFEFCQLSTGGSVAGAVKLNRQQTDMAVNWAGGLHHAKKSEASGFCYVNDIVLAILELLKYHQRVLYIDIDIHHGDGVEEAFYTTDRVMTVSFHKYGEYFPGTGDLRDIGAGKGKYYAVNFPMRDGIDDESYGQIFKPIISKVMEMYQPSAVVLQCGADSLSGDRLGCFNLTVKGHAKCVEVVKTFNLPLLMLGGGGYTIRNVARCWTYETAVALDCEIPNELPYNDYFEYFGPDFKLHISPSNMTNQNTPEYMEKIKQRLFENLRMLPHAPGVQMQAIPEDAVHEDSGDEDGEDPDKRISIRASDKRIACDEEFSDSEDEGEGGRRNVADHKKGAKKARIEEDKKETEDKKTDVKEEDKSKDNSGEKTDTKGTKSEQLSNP

recombinant human HDAC3, sequence (O15379 whole entry): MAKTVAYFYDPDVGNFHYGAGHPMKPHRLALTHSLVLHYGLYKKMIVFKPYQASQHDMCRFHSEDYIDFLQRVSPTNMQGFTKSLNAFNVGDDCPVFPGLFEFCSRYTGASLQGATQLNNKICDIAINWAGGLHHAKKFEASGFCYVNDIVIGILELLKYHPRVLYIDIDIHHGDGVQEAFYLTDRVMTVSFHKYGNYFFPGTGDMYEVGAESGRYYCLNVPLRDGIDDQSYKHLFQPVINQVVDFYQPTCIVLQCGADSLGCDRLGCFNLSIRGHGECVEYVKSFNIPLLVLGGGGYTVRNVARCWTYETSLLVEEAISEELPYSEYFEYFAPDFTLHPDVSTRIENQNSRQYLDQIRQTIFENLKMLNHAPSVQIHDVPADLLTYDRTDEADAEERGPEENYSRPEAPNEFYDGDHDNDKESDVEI
recombinant human HDAC3, sequence (Q9Y618 395-489 partner limits assumed): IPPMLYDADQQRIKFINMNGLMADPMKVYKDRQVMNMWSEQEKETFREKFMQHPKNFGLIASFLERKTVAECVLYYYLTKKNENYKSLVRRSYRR

O=C(CCCCCCC(=O)Nc1ccccc1)NO [SAHA, suberoyl anilide hydroxamic acid]
inhibition at 10 µM [1]: 100%

[N-]=[N+]=NCCC(=O)Nc1ccc(C(=O)Nc2cc(N=[N+]=[N-])ccc2N)cc1 [1g]
biotinylation of HDAC2 in competition with Trichostatin A [2]: slightly less pronounced
